Publication PMC2212779 (The Journal of Experimental Medicine, 2005)
Ends that are not written are not given here.

biological target: H-2D^b (Mus musculus, UniProt P01899); assay: not given; conditions: read-out: average IC50 of the radiolabeled standard peptide; cited from earlier work
Sequence (P01899 25-362): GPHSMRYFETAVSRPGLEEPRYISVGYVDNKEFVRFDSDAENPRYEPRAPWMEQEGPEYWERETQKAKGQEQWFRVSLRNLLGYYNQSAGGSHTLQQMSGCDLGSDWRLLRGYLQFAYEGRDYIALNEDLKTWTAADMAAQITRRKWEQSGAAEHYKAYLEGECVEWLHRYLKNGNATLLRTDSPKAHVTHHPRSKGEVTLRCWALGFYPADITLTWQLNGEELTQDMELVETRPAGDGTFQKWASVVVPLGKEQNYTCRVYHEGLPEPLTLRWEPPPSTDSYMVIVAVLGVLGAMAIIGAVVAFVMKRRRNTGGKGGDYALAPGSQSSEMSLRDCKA
Sequence (P61769 21-119, further chain): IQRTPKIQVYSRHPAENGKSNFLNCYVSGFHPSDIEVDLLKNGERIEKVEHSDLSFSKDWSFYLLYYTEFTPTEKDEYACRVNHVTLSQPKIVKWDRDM

| Sequence | IC50 |
| --- | --- |
| SGPSNTYPEI | 0.0044 µM |

biological target: H-2K^b (Mus musculus, UniProt P01901); assay: biochemical; type: binding; conditions: not given
Sequence (P01901 22-369): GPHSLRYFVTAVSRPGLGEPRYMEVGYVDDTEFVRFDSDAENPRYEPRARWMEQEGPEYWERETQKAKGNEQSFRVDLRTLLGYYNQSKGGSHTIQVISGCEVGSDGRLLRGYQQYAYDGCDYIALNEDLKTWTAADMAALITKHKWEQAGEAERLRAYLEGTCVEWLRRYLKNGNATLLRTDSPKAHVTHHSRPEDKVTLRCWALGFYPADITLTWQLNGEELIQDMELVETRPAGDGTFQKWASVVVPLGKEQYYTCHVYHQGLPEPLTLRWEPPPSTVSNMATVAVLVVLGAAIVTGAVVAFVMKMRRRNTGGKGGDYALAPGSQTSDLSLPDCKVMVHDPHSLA
Sequence (P61769 21-119, further chain): as the sequence (P61769 21-119, further chain) above

| Sequence | IC50 |
| --- | --- |
| LAVLFINSI [LAVLFINSI] | 0.028 µM |
| KVEEYCTGL [KVEEYCTGL] | 0.129 µM |
| ISLKNYGI [ISLKNYGI] | 0.016 µM |
| WQTMYTNV [WQTMYTNV] | 0.0066 µM |
| TSYKFESV [B8R20-27] | 0.00019 µM |
